From patent US11767322B2 (BRISTOL-MYERS SQUIBB COMPANY, priority 2020, dated 2023)
Read-outs that look alike come from different tables or passages of the source.

What was measured:
[1] = target: T1, His-GST-TVMV-hRIPK1(1-324) (Homo sapiens, UniProt Q13546); experiment: biochemical; format: binding; details: HTRF probe displacement, 1 h at rt; read-out: RIPK1 IC50
T1 construct: The coding region of human RIPK1(1-324) flanked by NdeI site at 5′ end; made in house; host or cells: Spodoptera frugiperda Sf9 insect cells (baculovirus, Bac-to-Bac)
T1 sequence (Q13546 1-324): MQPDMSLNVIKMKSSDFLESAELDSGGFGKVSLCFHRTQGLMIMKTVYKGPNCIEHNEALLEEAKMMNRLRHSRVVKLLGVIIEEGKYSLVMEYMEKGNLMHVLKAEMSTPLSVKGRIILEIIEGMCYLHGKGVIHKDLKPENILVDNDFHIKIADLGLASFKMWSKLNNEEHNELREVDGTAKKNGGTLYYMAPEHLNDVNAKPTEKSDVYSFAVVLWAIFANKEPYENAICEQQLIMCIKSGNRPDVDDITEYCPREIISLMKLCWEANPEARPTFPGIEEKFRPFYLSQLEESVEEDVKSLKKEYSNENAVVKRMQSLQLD

[2] = test system: MLKL phosphorylation in HT29-L23 human colorectal adenocarcinoma cells; experiment: MLKL phosphorylation high-content assay; format: cell-based
[3] = HT29-L23 cells, necroptosis induced with TNFα, SMAC mimetic and Z-VAD, 6 h, maximal inhibition defined by Nec1s, read-out: pMLKL IC50

Row | Structure (SMILES) | IC50 [1] [nM] | IC50 [2, 3] [nM] | other results
1 | [2H]C([2H])([2H])c1cccc(C(O)C(F)(F)CNC(=O)c2c(C([2H])([2H])[2H])ccc(-c3ccn4nc(N)nc4c3)c2F)c1F (single isomer, unassigned) [Example 206, 3-(2-amino-[1,2,4]triazolo[1,5-a]pyridin-7-yl)-N-(2,2-difluoro-3-(2-fluoro-3-(methyl-d3)phenyl)-3-hydroxypropyl)-2-fluoro-6-(methyl-d3)benzamide] | 7.7 |  | 
2 | Cc1ccc(-c2ccn3nc(N)nc3c2)c(F)c1C(=O)NCC(F)(F)C(C)(O)c1ccc(F)cc1 (racemic) [Example 18, 3-(2-amino-[1,2,4]triazolo[1,5-a]pyridin-7-yl)-N-(2,2-difluoro-3-(4-fluorophenyl)-3-hydroxybutyl)-2-fluoro-6-methylbenzamide] | 8.9 |  | 
3 | COc1c(-c2ccc(C)c(C(=O)NCC[C@H](O)c3ccc(Cl)cc3)c2F)ccn2nc(N)nc12 [compound 133] | 3.8 |  | 
4 | Nc1nc2cc(-c3ccc(Cl)c(C(=O)NCC(F)(F)C(O)C4CCC(F)(F)CC4)c3F)ccn2n1 (stereo not shown) [Example 256, 3-(2-amino-[1,2,4]triazolo[1,5-a]pyridin-7-yl)-6-chloro-N-(3-(4,4-difluorocyclohexyl)-2,2-difluoro-3-hydroxypropyl)-2-fluorobenzamide] | 3.2 |  | 
5 | Cc1ccc(-c2ccn3nc(N)nc3c2)c(F)c1C(=O)NCCC(O)c1ccc(Cl)c(Cl)c1 (stereo not shown) [Example 32, 3-(2-amino-[1,2,4]triazolo[1,5-a]pyridin-7-yl)-N-(3-(3,4-dichlorophenyl)-3-hydroxypropyl)-2-fluoro-6-methylbenzamide] | 2.2 |  | 
6 | CC(O)(c1ccc(F)cc1)C(F)(F)CNC(=O)c1c(Cl)ccc(-c2ccn3nc(N)nc3c2)c1F (stereo not shown) [Example 87, 3-(2-amino-[1,2,4]triazolo[1,5-a]pyridin-7-yl)-6-chloro-N-(2,2-difluoro-3-(4-fluorophenyl)-3-hydroxybutyl)-2-fluorobenzamide] | 8.6 |  | 
7 | C[C@](O)(c1ccc(F)cc1)[C@H](F)CNC(=O)c1c(Cl)ccc(-c2ccn3nc(N)nc3c2)c1F [Example 212, 3-(2-amino-[1,2,4]triazolo[1,5-a]pyridin-7-yl)-6-chloro-2-fluoro-N-((2R,3S)-2-fluoro-3-(4-fluorophenyl)-3-hydroxybutyl)benzamide] |  |  | IC50 ([2]; Homo sapiens, 6 h, HT29-L23 cells, necroptosis induced with TNFα, SMAC mimetic and Z-VAD, 6 h, maximal inhibition defined by Nec1s, read-out: pMLKL IC50): 0.8 nM
8 | CC(CCNC(=O)c1cccc(-c2ccn3nc(N)nc3c2)c1)c1ccccc1 (stereo not shown) [Example 316, 3-(2-amino-[1,2,4]triazolo[1,5-a]pyridin-7-yl)-N-(3-phenylbutyl)benzamide] |  |  | IC50 ([2]; Homo sapiens, 6 h, read-out: pMLKL IC50, HT29-L23 cells, necroptosis induced with TNFα, SMAC mimetic and Z-VAD, 6 h, maximal inhibition defined by Nec1s): 25 nM; IC50 ([2]; Homo sapiens, read-out: pMLKL IC50, Table 22, compounds of the present invention): 25 nM
9 | Cc1ccc(-c2ccn3nc(N)nc3c2)c(F)c1C(=O)NCC(F)(F)C(C)(O)c1ccc(F)cc1 (single isomer, unassigned) [Example 62, 3-(2-amino-[1,2,4]triazolo[1,5-a]pyridin-7-yl)-N-(2,2-difluoro-3-(4-fluorophenyl)-3-hydroxybutyl)-2-fluoro-6-methylbenzamide] |  | 1.1 | 
10 | [2H]C([2H])([2H])C(O)(c1ccc(F)cc1)C(F)CNC(=O)c1c(C(F)F)ccc(-c2ccn3nc(N)nc3c2)c1F (single isomer, unassigned) [Example 197, 3-(2-amino-[1,2,4]triazolo[1,5-a]pyridin-7-yl)-6-(difluoromethyl)-2-fluoro-N-(2-fluoro-3-(4-fluorophenyl)-3-hydroxybutyl-4,4,4-d3)benzamide] |  | 0.3 | 
11 | Cc1c(C(=O)NCC(F)(F)C(O)c2ccc(Cl)cc2)cc(-c2ccn3nc(N)nc3c2)c(F)c1F (single isomer, unassigned) [Example 105, 5-(2-amino-[1,2,4]triazolo[1,5-a]pyridin-7-yl)-N-(3-(4-chlorophenyl)-2,2-difluoro-3-hydroxypropyl)-3,4-difluoro-2-methylbenzamide] |  | 0.5 | 
12 | [2H]C([2H])([2H])C(O)(c1ccc(F)cc1)C(F)CNC(=O)c1c(Cl)ccc(-c2ccn3nc(N)nc3c2)c1F (single isomer, unassigned) [Example 240, 3-(2-amino-[1,2,4]triazolo[1,5-a]pyridin-7-yl)-6-chloro-2-fluoro-N-(2-fluoro-3-(4-fluorophenyl)-3-hydroxybutyl-4,4,4-d3)benzamide] |  | 3.1 | 
